The assay deals with T1, V2 -vasopressin receptors (Rattus norvegicus, UniProt Q00788).
T1 construct: from tissue; host or cells: whole animal (hydropenic rat)
T1 sequence (Q00788 whole entry): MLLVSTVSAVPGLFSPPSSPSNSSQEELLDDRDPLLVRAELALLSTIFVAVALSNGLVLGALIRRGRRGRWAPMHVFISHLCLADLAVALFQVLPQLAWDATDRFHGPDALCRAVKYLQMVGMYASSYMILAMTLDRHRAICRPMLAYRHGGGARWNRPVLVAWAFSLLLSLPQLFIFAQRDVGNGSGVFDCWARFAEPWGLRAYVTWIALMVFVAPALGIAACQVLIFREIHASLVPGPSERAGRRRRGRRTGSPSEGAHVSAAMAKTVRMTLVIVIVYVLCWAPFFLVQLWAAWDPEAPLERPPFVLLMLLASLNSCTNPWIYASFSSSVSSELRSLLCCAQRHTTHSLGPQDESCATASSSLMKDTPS
The experiment in a line: in vivo diuretic activity in the hydropenic rat. The note with it: measure of V2 antagonism. The procedure: Antagonistic activity at the V2 -vasopressin receptors is determined in a protocol which determines in vivo diuretic activity in the hydropenic rat (ED300 μg/kg). This procedure is described in the literature: F. Stassen et al., 1st International Conference on Diuretics, Miami, FL., March (1984).
“[1-(β,β-diethyl-β-mercaptopropionic acid)-2-(O-ethyl-L-tyrosine)-4-valine-8-arginine] vasopressin [Compound C]” registered an ED300 of 120.5 µg/kg.

For the substance “[1-(β,β-diethyl β-mercaptopropionic acid)-2-(O-ethyl-D-tyrosine)-4-valine-8-arginine-9-desglycine]-vasopressin [Compound B]”, the ED300 amounted to 11.9 µg/kg.

Substance “[1-(β,β-dimethyl-β-mercaptopropionic acid)-2-(O-ethyl-D-tyrosine)-4-valine-8-arginine]vasopressin [Compound D, reference compound]” showed an ED300 of 4950 µg/kg.

These data come from patent publication US4749782A, “Vasopressin compounds” (Smithkline Beckman Corporation, priority 1986, dated 1988).
